Tests used:
[1] = system: MEK; assay: Cellular assay for measuring MEK inhibition, C26CPA1 (inhibition of ERK phosphorylation in C26 cells); format: cell-based, murine; settings: murine colon 26 (C26) carcinoma cells, one hour at 37 C
Outline: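 Exponentially growing murine C26 carcinoma cells treated with test compound for one hour at 37° C. CPA1 read-out: Western blot of lysates with dually phosphorylated ERK1/2 antibody, re-probed for total ERK1/2. ELSA read-out: pERK enzyme immunometric ELISA on SDS lysates diluted 1:15.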

[2] = system: MEK; assay: Cellular assay for measuring MEK inhibition, C26ELSA (pERK ELISA format in C26 cells); format: cell-based, murine; settings: for C26ELSA % Inhibition @ 5 μM / C26ELSA % Inhib @ 0.5 μM: C26 cells; for IC50: murine colon 26 (C26) carcinoma cells, one hour at 37 C
Experimental: Cellular Assay for Measuring MEK Inhibition
MEK inhibitors were evaluated by determining their ability to inhibit phosphorylation of MAP kinase (ERK) in murine colon 26 (C26) carcinoma cells. Since ERK1 and ERK2 represent the only known substrates for MEK1 and MEK2, the measurement of inhibition of ERK phosphorylation in cells provides direct read out of cellular MEK inhibition by the compounds of the invention. Detection of phosphorylation of ERK was carried out either by Western blot or ELISA format. Briefly, the assays involve treatment of exponentially growing C26 cells with varying concentrations of the test compound (or vehicle control) for one hour at 37≡ C. For Western blot assay, cells were rinsed free of compound/vehicle and lysed in a solution containing 70 mM NaCl, 50 mM glycerol phosphate, 10 mM HEPES, […], 1% Triton X-100, 1 mM Na3VO4, 100 μM PMSF, 10 μM leupeptin and 10 μM pepstatin. Supernatants were then subjected to gel electrophoresis and hybridized to a primary antibody recognizing dually phosphorylated ERK1 and ERK2. To evaluate total MAPK levels, blots were subsequently ‘stripped’ and re-probed with a 1:1 mixture of polyclonal antibodies recognizing unphosphorylated ERK1 and ERK2. For pERK ELISA assay, pERK TiterZyme Enzyme immunometric Assay kits were acquired from Assay Designs, Inc (Ann Arbor, Mich.). Briefly, cells were harvested in lysis solution containing 50 mM β-glycerophosphate, 10 mM HEPES, pH7.4, 70 mM NaCl, 2 mM EDTA and 1% SDS and protein lysates were diluted 1:15 with supplied Assay buffer prior to the execution of the assay. The subsequent steps were carried out essentially as recommended by the manufacturer.

SMILES | IC50 [1] | melting point | C26ELSA % Inhibition @ 5 μM [2] | IC50 [2] | C26ELSA % Inhib @ 0.5 μM [2]
CN(C)c1ccc(Nc2nnc(-c3ccc(F)c(F)c3Nc3ccc(I)cc3F)o2)cc1 [Example 7, N-{5-[3,4-Difluoro-2-(2-fluoro-4-iodo-phenylamino)-phenyl]-[1,3,4]oxadiazol-2-yl}-N′,N′-dimethyl-benzene-1,4-diamine] | > 1000 nM | 230 to 233 °C | – | – | –
CCc1ccc(Nc2c(-c3nnc(CCCBr)o3)ccc(F)c2F)c(F)c1 [Example 145, {6-[5-(3-Bromo-propyl)-[1,3,4]oxadiazol-2-yl]-2,3-difluoro-phenyl}-(4-ethyl-2-fluoro-phenyl)-amine] | – | – | 13% | – | –
CCc1ccc(Nc2c(-c3nnc(NCCNC)o3)ccc(F)c2F)c(F)c1 [Example 67, N-{5-[2-(4-Ethyl-2-fluoro-phenylamino)-3,4-difluoro-phenyl]-[1,3,4]oxadiazol-2-yl}-N′-methyl-ethane-1,2-diamine] | 16 nM | 154 to 157 °C | – | – | –
OCCNc1nnc(-c2ccc(F)c(F)c2Nc2ccc(CCO)cc2F)o1 [Example 169, 2-(5-{3,4-difluoro-2-[2-fluoro-4-(2-hydroxy-ethyl)phenylamino]-phenyl}-[1,3,4]oxadiazol-2-ylamino)ethanol] | – | – | – | 5100 nM | –
CCNc1nnc(-c2ccc(F)c(F)c2Nc2ccc(I)cc2F)o1 [Example 4, {5-[3,4-Difluoro-2-(2-fluoro-4-iodo-phenylamino)-phenyl]-[1,3,4]oxadiazol-2-yl}-ethyl-amine] | 89 nM | 188 to 189 °C | – | – | –
C#Cc1ccc(Nc2c(-c3nnc(CC)o3)ccc(F)c2F)c(F)c1 [Example 144, [6-(5-Ethyl-[1,3,4]oxadiazol-2-yl)-2,3-difluoro-phenyl]-(4-ethynyl-2-fluoro-phenyl)-amine] | – | – | 43% | – | –
OC1CCN(c2nnc(-c3ccc(F)c(F)c3Nc3ccc(I)cc3F)o2)C1 (stereo not drawn) [Example 24, 1-{5-[3.4-Difluoro-2-(2-fluoro-4-iodo-phenylamino)-phenyl]-[1,3,4]oxadiazol-2-yl}-pyrrolidin-3-ol] | 170 nM | 182 to 183 °C | – | – | –
C=CCNc1nnc(-c2ccc(F)c(F)c2Nc2ccc(I)cc2F)o1 [Example 5, Allyl-{5-[3,4-difluoro-2-(2-fluoro-4-iodo-phenylamino)-phenyl]-[1,3,4]oxadiazol-2-yl}-amine] | 9 nM | 175 to 178 °C | – | – | –
CC(C)(CO)CCCNc1nnc(-c2ccc(F)c(F)c2Nc2ccc(I)cc2F)o1 [Example 23, 5-{5-[3,4-Difluoro-2-(2-fluoro-4-iodo-phenylamino)-phenyl]-[1,3,4]oxadiazol-2-ylamino}-2,2-dimethyl-pentan-1-ol] | 292 nM | 67 to 70 °C | – | – | –
OCCNc1nnc(-c2ccc(F)c(F)c2Nc2ccc(I)cc2F)o1 [Example 29, 2-{5-[3,4-Difluoro-2-(2-fluoro-4-iodo-phenylamino)-phenyl]-[1,3,4]oxadiazol-2-ylamino}-ethanol] | 15 nM | 100 to 103 °C | – | – | –
CCc1ccc(Nc2c(-c3nnc(NCCN4CCOCC4)o3)ccc(F)c2F)c(F)c1 [Example 68, {5-[2-(4-Ethyl-2-fluoro-phenylamino)-3,4-difluoro-phenyl]-[1,3,4]oxadiazol-2-yl}-(2-morpholin-4-yl-ethyl)-amine] | 50 nM | 233 to 238 °C | – | – | –
CCN(CCCCO)c1nnc(-c2ccc(F)c(F)c2Nc2ccc(I)cc2F)o1 [Example 27, 4-({5-[3,4-Difluoro-2-(2-fluoro-4-iodo-phenylamino)-phenyl]-[1,3,4]oxadiazol-2-yl}-ethyl-amino)-butan-1-ol] | 180 nM | 121 to 122 °C | – | – | –
C#Cc1ccc(Nc2c(-c3nnc(NC[C@@H](O)CO)o3)ccc(F)c2F)c(F)c1 [Example 151, 3-{5-[2-(4-Ethynyl-2-fluoro-phenylamino)-3,4-difluoro-phenyl]-[1,3,4]oxadiazol-2-ylamino}-propane-1,2(R)-diol] | – | – | – | 120 nM | –
OCC(O)CNc1nnc(-c2ccc(F)c(F)c2Nc2ccc(I)cc2F)o1 (stereo not drawn) [Example 8, 3-{5-[3,4-Difluoro-2-(2-fluoro-4-iodo-phenylamino)-phenyl]-[1,3,4]oxadiazol-2-ylamino}-propane-1,2-diol] | 67 nM | 157 to 159 °C | – | – | –
CCc1ccc(Nc2c(-c3nnc(CCCN4CCOCC4)o3)ccc(F)c2F)c(F)c1 [Example 146, {2,3-Difluoro-6-[5-(3-morpholin-4-yl-propyl)-[1,3,4]oxadiazol-2-yl]-phenyl}-(4-ethyl-2-fluoro-phenyl)-amine] | – | – | 6% | – | –
CCNc1nnc(-c2ccc(F)c(F)c2Nc2ccc(I)cc2F)s1 [Example 71, {5-[3,4-Difluoro-2-(2-fluoro-4-iodo-phenylamino)-phenyl]-[1,3,4]thiadiazol-2-yl}-ethyl-amine] | 180 nM | 238 to 239 °C | – | – | –
OC1CCN(c2nnc(-c3ccc(F)c(F)c3Nc3ccc(I)cc3F)o2)CC1 [Example 28, 1-{5-[3,4-Difluoro-2-(2-fluoro-4-iodo-phenylamino)-phenyl]-[1,3,4]oxadiazol-2-yl}-piperidin-4-ol] | 74 nM | 216 to 217 °C | – | – | –
COCCN1CCN(c2nnc(-c3ccc(F)c(F)c3Nc3ccc(I)cc3F)o2)CC1 [Example 22, (2,3-Difluoro-6-{5-[4-(2-methoxy-ethyl)-piperazin-1-yl]-[1,3,4]oxadiazol-2-yl}-phenyl)-(2-fluoro-4-iodo-phenyl)-amine] | 130 nM | 63 to 65 °C | – | – | –
CC(=O)c1ccc(Nc2c(-c3nnc(NCCN4CCOCC4)o3)ccc(F)c2F)c(F)c1 [Example 149, 1-(4-{2,3-Difluoro-6-[5-(2-morpholin-4-yl-ethylamino)-[1,3,4]oxadiazol-2-yl]-phenylamino}-3-fluoro-phenyl)-ethanone] | – | – | 14% | – | 2%
COc1ccc(Nc2nnc(-c3ccc(F)c(F)c3Nc3ccc(I)cc3F)o2)c(OC)c1 [Example 6, {5-[3,4-Difluoro-2-(2-fluoro-4-iodo-phenylamino)-phenyl]-[1,3,4]oxadiazol-2-yl}-(2.4-dimethoxy-phenyl)-amine] | > 1000 nM | 185 to 186 °C | – | – | –
Nc1nnc(-c2ccc(F)c(F)c2Nc2ccc(I)cc2F)o1 [Example 1, 5-[3,4-Difluoro-2-(2-fluoro-4-iodo-phenylamino)-phenyl]-[1,3,4]oxadiazol-2-ylamine] | 40 nM | 248 to 249 °C | – | – | –
CCc1ccc(Nc2c(-c3nnc(NCCO)o3)ccc(F)c2F)c(F)c1 [Example 69, 2-{5-[2-(4-Ethyl-2-fluoro-phenylamino)-3,4-difluoro-phenyl]-[1,3,4]oxadiazol-2-ylamino}-ethanol] | 100 nM | 100 to 103 °C | – | – | –
OCCCCCNc1nnc(-c2ccc(F)c(F)c2Nc2ccc(I)cc2F)o1 [Example 32, 5-{5-[3,4-Difluoro-2-(2-fluoro-4-iodo-phenylamino)-phenyl]-[1,3,4]oxadiazol-2-ylamino}-pentan-1-ol] | 120 nM | 119 to 121 °C | – | – | –
OCCCCNc1nnc(-c2ccc(F)c(F)c2Nc2ccc(I)cc2F)o1 [Example 31, 4-{5-[3,4-Difluoro-2-(2-fluoro-4-iodo-phenylamino)-phenyl]-[1,3,4]oxadiazol-2-ylamino}-butan-1-ol] | 12 nM | 82 to 83 °C | – | – | –
OCC1CCN(c2nnc(-c3ccc(F)c(F)c3Nc3ccc(I)cc3F)o2)CC1 [Example 25, (1-{5-[3,4-Difluoro-2-(2-fluoro-4-iodo-phenylamino)-phenyl]-[1,3,4]oxadiazol-2-yl}-piperidin-4-yl)-methanol] | > 1000 nM | 90 to 92 °C | – | – | –
OCCc1ccc(Nc2c(-c3nnc(NCCN4CCOCC4)o3)ccc(F)c2F)c(F)c1 [Example 157, 2-(4-{2,3-difluoro-6-[5-(2-morpholin-4-yl-ethylamino)-[1,3,4]oxadiazol-2-yl]-phenylamino}-3-fluoro-phenyl)-ethanol] | – | – | 33% | – | 31%
CCN(CC)CCCNc1nnc(-c2ccc(F)c(F)c2Nc2ccc(I)cc2F)o1 [Example 10, N-{5-[3,4-Difluoro-2-(2-fluoro-4-iodo-phenylamino)-phenyl]-[1,3,4]oxadiazol-2-yl}-N′,N′-diethyl-propane-1,3-diamine] | 153 nM | 116 to 118 °C | – | – | –
OCCC1CCN(c2nnc(-c3ccc(F)c(F)c3Nc3ccc(I)cc3F)o2)CC1 [Example 26, 2-(1-{5-[3,4-Difluoro-2-(2-fluoro-4-iodo-phenylamino)-phenyl]-[1,3,4]oxadiazol-2-yl}-piperidin-4-yl)-ethanol] | 140 nM | 121 to 122 °C | – | – | –

— patent US20050004186A1, “MEK inhibiting compounds” (Pfizer Inc, priority 2002, published 2005)
